Assay results published in ChEMBL document CHEMBL1201862, “PubChem BioAssay data set” (2004).
Calls of active or inactive are those of the source. For most assays here, no stated cut-off is given here; in the data, actives have a measured EC50 and inactives only a lower limit.

Experiments:
[1] = target: Sphingosine 1-phosphate receptor 2 (Homo sapiens, UniProt O95136); experiment: Dose Response Cell Based Assay for Agonists of the S1P2 Receptor of Purchased Analogues. [Related pubchem assays: 729, 843, 854, 736 ]; type: functional
Sequence of Sphingosine 1-phosphate receptor 2 (O95136 whole entry): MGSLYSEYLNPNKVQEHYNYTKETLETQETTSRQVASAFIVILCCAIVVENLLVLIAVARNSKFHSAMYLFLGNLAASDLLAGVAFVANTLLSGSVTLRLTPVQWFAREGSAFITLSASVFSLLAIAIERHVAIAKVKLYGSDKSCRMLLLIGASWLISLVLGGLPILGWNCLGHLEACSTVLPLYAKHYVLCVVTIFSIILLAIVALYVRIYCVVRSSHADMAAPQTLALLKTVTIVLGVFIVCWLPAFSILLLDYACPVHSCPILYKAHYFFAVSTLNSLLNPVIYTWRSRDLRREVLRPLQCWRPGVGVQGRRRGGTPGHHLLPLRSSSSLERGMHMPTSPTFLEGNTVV

[2] = target: T1, Replicative DNA helicase DnaB (Mycobacterium tuberculosis, UniProt P9WMR3); experiment: DnaB intein splicing inhibitors, dose response, biochemical, cell-free fluorescence (AID 449749); type: functional
T1 sequence (P9WMR3 whole entry): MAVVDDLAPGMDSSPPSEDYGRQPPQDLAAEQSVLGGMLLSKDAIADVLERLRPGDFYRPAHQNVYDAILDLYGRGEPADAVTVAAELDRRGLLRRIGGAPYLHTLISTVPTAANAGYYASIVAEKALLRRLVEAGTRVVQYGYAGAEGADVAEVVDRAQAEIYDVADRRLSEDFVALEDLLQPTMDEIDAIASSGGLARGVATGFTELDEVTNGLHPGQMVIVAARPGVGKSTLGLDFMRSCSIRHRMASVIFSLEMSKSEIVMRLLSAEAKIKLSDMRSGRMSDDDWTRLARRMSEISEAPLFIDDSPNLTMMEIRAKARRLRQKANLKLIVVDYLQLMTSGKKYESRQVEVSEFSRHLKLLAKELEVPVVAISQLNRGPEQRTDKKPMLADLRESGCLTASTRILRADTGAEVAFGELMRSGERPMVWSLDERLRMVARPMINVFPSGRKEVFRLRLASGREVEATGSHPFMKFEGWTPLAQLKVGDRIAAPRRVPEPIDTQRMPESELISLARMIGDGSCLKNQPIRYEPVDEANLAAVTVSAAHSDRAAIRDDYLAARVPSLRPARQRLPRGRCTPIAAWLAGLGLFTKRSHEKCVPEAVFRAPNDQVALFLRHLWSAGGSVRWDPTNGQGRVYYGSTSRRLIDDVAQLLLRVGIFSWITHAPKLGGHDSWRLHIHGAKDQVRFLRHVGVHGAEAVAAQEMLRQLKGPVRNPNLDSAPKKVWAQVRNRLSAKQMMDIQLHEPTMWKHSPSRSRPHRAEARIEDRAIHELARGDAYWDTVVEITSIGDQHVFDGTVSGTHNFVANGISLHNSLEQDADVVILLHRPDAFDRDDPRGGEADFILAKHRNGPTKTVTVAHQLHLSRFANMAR

[3] = target: T2, Aspartyl aminopeptidase (Plasmodium falciparum 3D7, UniProt Q8I2J3); experiment: Counterscreen for inhibitors of M1 and M17 aminopeptidases: QFRET-based biochemical high throughput dose response assay for inhibitors of the Plasmodium falciparum M18 Aspartyl Aminopeptidase (PFM18AAP). [Related PubChem assays: 1619 (Screening assay (M17LAP inhibitors).), 1445 (Screening assay (M1AAP inhibitors).)]
T2 sequence (Q8I2J3 whole entry): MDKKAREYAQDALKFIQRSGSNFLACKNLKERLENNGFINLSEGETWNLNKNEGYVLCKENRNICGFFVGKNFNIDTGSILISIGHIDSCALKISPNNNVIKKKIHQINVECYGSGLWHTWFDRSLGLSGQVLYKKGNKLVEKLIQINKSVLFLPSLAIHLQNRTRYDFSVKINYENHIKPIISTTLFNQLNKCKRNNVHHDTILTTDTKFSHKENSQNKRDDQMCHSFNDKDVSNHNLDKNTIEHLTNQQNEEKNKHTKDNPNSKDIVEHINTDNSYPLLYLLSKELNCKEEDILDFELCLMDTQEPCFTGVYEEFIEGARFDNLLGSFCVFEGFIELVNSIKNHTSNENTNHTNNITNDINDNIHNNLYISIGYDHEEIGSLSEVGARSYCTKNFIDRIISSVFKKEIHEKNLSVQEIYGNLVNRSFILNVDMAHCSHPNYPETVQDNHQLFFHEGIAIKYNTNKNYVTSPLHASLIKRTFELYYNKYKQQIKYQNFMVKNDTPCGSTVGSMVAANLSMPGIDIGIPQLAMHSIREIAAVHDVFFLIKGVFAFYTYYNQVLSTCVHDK

[4] = target: Procathepsin L (Homo sapiens, UniProt P07711); experiment: cathepsin L inhibitors, dose response, counter-screen for M1/M17 aminopeptidase inhibitor project, biochemical, QFRET, 1536-well (AID 2214)
Sequence of Procathepsin L (P07711 whole entry): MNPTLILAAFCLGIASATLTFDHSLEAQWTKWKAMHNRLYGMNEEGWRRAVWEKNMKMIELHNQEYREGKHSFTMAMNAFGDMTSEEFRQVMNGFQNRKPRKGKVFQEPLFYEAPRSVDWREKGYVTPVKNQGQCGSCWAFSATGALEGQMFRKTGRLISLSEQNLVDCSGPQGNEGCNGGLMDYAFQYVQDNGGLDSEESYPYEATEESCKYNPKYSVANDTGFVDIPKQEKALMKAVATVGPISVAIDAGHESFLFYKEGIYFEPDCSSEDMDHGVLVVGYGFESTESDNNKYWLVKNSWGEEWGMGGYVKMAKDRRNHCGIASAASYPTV

[5] = target: T3, Leucine aminopeptidase (Plasmodium falciparum 3D7, UniProt Q8IL11); experiment: P. falciparum M17LAP inhibitors, primary screen, biochemical, fluorogenic H-Leu-NHMec substrate, 1536-well (AID 1619); type: functional
T3 sequence (Q8IL11 whole entry): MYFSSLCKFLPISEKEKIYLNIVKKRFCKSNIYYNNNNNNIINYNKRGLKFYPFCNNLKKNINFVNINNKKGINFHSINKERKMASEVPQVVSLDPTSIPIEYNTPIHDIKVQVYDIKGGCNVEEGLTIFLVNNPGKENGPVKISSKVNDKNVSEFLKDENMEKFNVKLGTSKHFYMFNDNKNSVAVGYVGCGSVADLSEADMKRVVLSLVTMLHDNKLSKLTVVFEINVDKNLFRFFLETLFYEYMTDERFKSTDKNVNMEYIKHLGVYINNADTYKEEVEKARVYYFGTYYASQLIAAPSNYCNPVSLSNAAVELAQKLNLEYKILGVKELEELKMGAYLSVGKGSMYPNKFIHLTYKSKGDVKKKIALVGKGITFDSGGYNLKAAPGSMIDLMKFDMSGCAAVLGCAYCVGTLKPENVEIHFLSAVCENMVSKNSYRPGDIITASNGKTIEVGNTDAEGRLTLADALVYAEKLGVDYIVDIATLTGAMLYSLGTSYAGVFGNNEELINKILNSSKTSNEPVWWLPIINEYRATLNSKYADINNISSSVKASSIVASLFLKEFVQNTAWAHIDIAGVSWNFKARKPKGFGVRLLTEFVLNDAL

[6] = target: Dual specificity tyrosine-phosphorylation-regulated kinase 1A (Rattus norvegicus, UniProt Q63470); type: biochemical, Homo sapiens
[7] = target: T4, Protein RecA (Mycobacterium tuberculosis, UniProt P9WHJ3); experiment: Fluorescence Cell-Free Homogeneous Dose Retest to Identify Inhibitors of RecA-Intein Splicing Activity. [Related pubchem assays (depositor defined):AID2097, AID2223, AID489010, AID492950]; type: functional
T4 sequence (P9WHJ3 whole entry): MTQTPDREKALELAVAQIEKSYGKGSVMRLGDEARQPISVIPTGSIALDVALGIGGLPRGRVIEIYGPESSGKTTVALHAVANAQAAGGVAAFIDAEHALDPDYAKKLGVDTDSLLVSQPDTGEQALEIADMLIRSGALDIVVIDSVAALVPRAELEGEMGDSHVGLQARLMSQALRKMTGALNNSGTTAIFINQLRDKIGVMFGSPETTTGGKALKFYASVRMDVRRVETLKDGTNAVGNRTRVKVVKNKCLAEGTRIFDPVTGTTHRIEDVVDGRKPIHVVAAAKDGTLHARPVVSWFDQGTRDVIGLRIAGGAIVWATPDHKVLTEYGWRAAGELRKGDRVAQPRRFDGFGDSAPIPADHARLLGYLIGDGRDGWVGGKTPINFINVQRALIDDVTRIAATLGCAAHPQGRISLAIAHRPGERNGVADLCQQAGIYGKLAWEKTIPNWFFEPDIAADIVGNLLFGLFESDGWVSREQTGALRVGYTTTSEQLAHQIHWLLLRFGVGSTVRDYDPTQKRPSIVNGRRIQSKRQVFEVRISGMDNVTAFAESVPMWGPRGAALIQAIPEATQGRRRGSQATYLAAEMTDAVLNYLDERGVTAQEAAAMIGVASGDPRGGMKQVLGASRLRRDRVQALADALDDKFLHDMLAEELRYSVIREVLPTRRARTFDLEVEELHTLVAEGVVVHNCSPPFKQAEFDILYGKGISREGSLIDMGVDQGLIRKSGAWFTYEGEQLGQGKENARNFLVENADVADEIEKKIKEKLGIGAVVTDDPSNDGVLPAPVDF

[8] = Luminescence Cell-Based Dose Response HTS to Identify Inhibitors of 5'UTR Stem-Loop Driven Prion Protein mRNA Translation in H4 Neuroglioblastoma Cells. [Related pubchem assays: 1827 (Project Summary), 1813 (Primary HTS)]; type: functional
[9] = cytotoxicity toward DRD oncogenic fibroblasts, dose response, cell-based, non-viral oncogenic, luminescence (AID 1934); type: functional; settings: Homo sapiens
[10] = system: Streptococcus sp. 'group A'; experiment: growth inhibition of control SK(-) GAS strain, dose response, counter-screen for streptokinase expression inhibitor project, luminescence, kanamycin, BacTiterGlo, confirmation (AID 1900); type: functional, organism-based
[11] = system: Streptococcus; experiment: Group A Streptococcus viability loss, dose response, counter-screen for streptokinase expression inhibitor project, luminescence, BacTiterGlo (AID 1915); type: functional, organism-based;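 further: potency for reduction of bacterial viability or growth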
[12] = inhibitors of firefly luciferase expression or activity, dose response, H4 neuroglioma cells, luminescence (AID 1990); type: functional, cell-based
[13] = system: BJ; experiment: cells; type: functional, cell-based; settings: Homo sapiens
[14] = cytotoxicity toward NIH3T3 fibroblasts, dose response, counter-screen, cell-based, ATP luminescence, mouse fibroblasts (AID 2010); type: functional;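 further: cells exposed to compound for about 90 hours before reading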
[15] = system: BJ; experiment: cytotoxicity toward BJ-TERT fibroblasts, dose response, cell-based, RAS-independent, luminescence (AID 1933); type: functional; settings: Homo sapiens
[16] = inhibitors of intracellular T. cruzi replication, confirmation, NIH3T3 host cells, beta-gal luminescence (AID 2044); type: functional, cell-based;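 further: intracellular parasites grown in NIH/3T3 mouse fibroblasts as host cells; luminescent beta-galactosidase reporter signal from transgenic T. cruzi replicating inside host cells; inhibitors lower the luminescence signal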
[17] = Luminescence-based dose response cell-based high throughput screening assay for cytotoxic compounds using the IEC-6 intestinal epithelial cell line. [Related pubchem assays: 1858 (Summary AID.), 1825 (Counterscreen.), 1907 (Confirmation screen.)]; type: functional
[18] = system: BJ; experiment: cytotoxicity toward BJ-TERT-LT-ST fibroblasts, dose response, cell-based, RAS-independent, luminescence (AID 1935); type: functional; settings: Homo sapiens;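 further: BJ fibroblasts immortalized with TERT plus LT and ST oncogenes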
[19] = system: Streptococcus; experiment: Streptococcus pyogenes growth inhibition counter-screen, dose response, counter-screen for streptokinase expression inhibitor project, luminescence, BacTiter-Glo, strain UMAA2166 (AID 2477); type: functional, organism-based
[20] = target: T5, Streptokinase A (Streptococcus pyogenes serotype M1, UniProt P10520); experiment: Absorbance Microorganism-Based Dose Response Follow up to Identify Inhibitors of Streptokinase Expression. [Related pubchem assays: 1677 (Project Summary), 1915, 1914, 1902 (Retest at Dose), 1900 (Counter Screen), 1662 (Primary HTS)]; type: functional, Streptococcus pyogenes M1 GAS
T5 sequence (P10520 whole entry): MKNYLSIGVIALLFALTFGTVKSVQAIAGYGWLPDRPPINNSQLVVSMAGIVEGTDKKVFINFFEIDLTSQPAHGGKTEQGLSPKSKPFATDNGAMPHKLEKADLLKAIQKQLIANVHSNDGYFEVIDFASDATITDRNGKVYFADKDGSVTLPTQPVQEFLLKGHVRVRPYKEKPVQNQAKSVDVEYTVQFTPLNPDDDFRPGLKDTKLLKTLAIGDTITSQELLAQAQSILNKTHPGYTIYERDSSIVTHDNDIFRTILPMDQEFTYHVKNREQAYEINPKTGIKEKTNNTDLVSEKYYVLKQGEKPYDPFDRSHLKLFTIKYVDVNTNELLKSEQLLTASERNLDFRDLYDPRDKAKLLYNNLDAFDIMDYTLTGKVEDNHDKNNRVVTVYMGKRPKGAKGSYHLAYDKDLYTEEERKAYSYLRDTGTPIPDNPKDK

[21] = target: T6, Mannose-6-phosphate isomerase (Homo sapiens, UniProt P34949); experiment: inhibitors of human PMI, primary screen, biochemical, fluorescence intensity, coupled assay (AID 1209)
T6 sequence (P34949 whole entry): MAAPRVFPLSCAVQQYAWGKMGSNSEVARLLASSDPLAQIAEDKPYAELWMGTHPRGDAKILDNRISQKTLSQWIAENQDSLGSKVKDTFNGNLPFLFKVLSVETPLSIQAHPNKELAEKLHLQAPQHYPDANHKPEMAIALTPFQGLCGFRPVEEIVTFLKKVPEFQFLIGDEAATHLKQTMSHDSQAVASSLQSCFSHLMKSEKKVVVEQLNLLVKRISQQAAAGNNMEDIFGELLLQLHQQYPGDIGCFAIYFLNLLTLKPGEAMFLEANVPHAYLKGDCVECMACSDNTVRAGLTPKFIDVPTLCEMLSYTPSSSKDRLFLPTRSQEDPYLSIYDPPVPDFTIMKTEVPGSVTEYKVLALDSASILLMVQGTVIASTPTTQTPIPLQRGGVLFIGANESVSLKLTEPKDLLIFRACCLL

[22] = Luminescence Cell-Based Dose Confirmation HTS to Identify Activators of 5'UTR Stem-Loop Driven Alpha-Synuclein mRNA Translation in H4 Neuroglioblastoma Cells. [Related pubchem assays: 1829 (Project Summary), 1814 (Primary HTS)]; type: functional
[23] = target: T6, Mannose-6-phosphate isomerase; experiment: human PMI inhibitors, high substrate, primary screen, biochemical, fluorescence intensity, high mannose 6-phosphate (AID 1220)
[24] = system: H4; experiment: Luminescence Cell-Based Dose Response HTS to Identify Activators of 5'UTR Stem-Loop Driven Prion Protein mRNA Translation in H4 Neuroglioblastoma Cells. [Related pubchem assays: 1829 (Project Summary), 1814 (Primary HTS)]; type: functional; settings: Homo sapiens
[25] = Luminescence Cell-Based Dose Response HTS to Identify Activators of Luciferase Translation or Activity in H4 […] Cells. [Related pubchem assays: 1829 (Project Summary), 1814 (Primary HTS)]; type: functional

Cc1cc(C(=O)COC(=O)C2CSC3(C)CCC(=O)N23)c(C)n1Cc1ccccc1 (stereo not given)
EC50 [1]: > 30 µM (not active)

COc1ccc(-c2cc(=O)[nH][nH]2)cc1
AC50 [2]: 0.882 µM (active)
IC50 [3]: > 73.5 µM (not active)
IC50 [4]: > 59.6 µM (not active)
IC50 [5]: 2.97 µM (active)
AC50 [6]: 5.54 µM (active)
EC50 [7]: 0.444 µM (active)

COc1ccccc1-c1nnc(Nc2nc3c(OC)cccc3s2)o1
EC50 [8]: 5.65 µM (active)
EC50 [9]: 28.9 µM (inconclusive)
EC50 [10]: 1.67 µM (active)
EC50 [11]: > 150 µM (inconclusive)
EC50 [12]: 8.66 µM (inconclusive)
EC50 [13]: 0.635 µM (active)
EC50 [14]: 0.576 µM (active)
EC50 [15]: 0.904 µM (active)
EC50 [16]: 0.559 µM (active)
IC50 [17]: 0.886 µM (active)
EC50 [18]: 0.457 µM (inconclusive)

COc1ccc(S(=O)(=O)c2ccc(NC(=O)c3ccccc3Cl)cc2C#N)cc1
EC50 [19]: 40.5 µM (active)
EC50 [20]: 5.44 µM (active)

c1ccc(-c2cc(N3CCCCCC3)n[nH]2)cc1
IC50 [21]: > 50 µM (not active)
EC50 [22]: 5.19 µM (active)
IC50 [23]: > 50 µM (not active)
EC50 [24]: 9.81 µM (active)
EC50 [25]: 30.9 µM (active)
